Source: patent publication US20050131238A1, “Spermicides” (SSL International plc, priority 2001, published 2005)

Key:
ME180 cells = assay: Cell cytotoxicity (MTT cell viability assay); assay type: cell-based; conditions: Homo sapiens, ME-180, concentration giving 50% inhibition of cell viability vs control, ± SEM
Experimental: 2. Determination of Cell Cytotoxicity (MTT Cell Viability Assay)
The effect of compounds on vaginal cell viability is assessed using the MTT assay. MTT is a tetrazolium salt which is converted by viable cells to an insoluble […]. This colour conversion is measured by spectrophotometry. Data is then subjected to non-linear regression analysis to generate concentration response curves and subsequently an EC50 value curves using GraphPad Prism software (San Diego, Calif., USA). The EC50 value is the concentration of spermicide which produces 50% inhibition of cell viability compared to control.

human sperm = assay: Evaluation of human sperm motility (spermicidal efficacy), manual microscopy; assay type: cell-based; conditions: concentration giving 50% inhibition of sperm motility vs control, motility determined within 30 s by manual microscopy, ± SEM, read-out: Inhibition Human Sperm Motility (ED50)
Description: 1. Evaluation of Human Sperm Motility (Spermicidal Efficacy)
The number of motile sperm (%) is rapidly determined (within 30s) following exposure to varying concentrations of spermicide using manual microscopy. Using non-linear regression analysis motility data from these screens is used to generate concentration response curves and subsequently an ED50 value using GraphPad Prism software (San Diego, Calif., USA). The ED50 value is the concentration of spermicide which produces 50% inhibition of sperm motility compared to control.

sperm = conditions: 10 mM CPhM solution, incubation for 10 minutes; decreased from 80%; cited from earlier work

| Compound | EC50 (ME180 cells) [µM] | EC50 (human sperm) [µM] | fertilising capacity of sperm (sperm) [%] |
| --- | --- | --- | --- |
| O=C1C=CC(=O)N1c1ccc(OCCOCCOCCOCCOc2ccc(N3C(=O)C=CC3=O)cc2)cc1 [Compound 15] | 153 | 5 | – |
| CCOC(=O)c1ccc(N2C(=O)C=CC2=O)cc1 [Compound 3] | 363 | 77 | – |
| Cc1cc(N2C(=O)C=CC2=O)no1 [Compound 8] | 858 | 79 | – |
| O=C1C=CC(=O)N1C1CCCCC1 [Compound 5] | 114 | 294 | – |
| N#Cc1cccc(N2C(=O)C=CC2=O)c1 [Compound 9] | 143 | 56 | – |
| COCCOCCOCCOCCOc1ccc(N2C(=O)C=CC2=O)cc1 [Compound 14] | 285 | 149 | – |
| O=C1C=CC(=O)N1c1ccccc1 [Compound 1] | 370 | 32 | – |
| O=C(O)c1ccc(N2C(=O)C=CC2=O)cc1O [CPhM, N-(4-carboxy-3-hydroxy-phenyl)-maleimide] | – | – | 17 |
| O=C1C=CC(=O)N1c1ccc2c(c1)OCCO2 [Compound 7] | 410 | 43 | – |
| O=C1C=CC(=O)N1c1ccc(-c2ccc(N3C(=O)C=CC3=O)cc2)cc1 [Compound 11] | > 30 | 1.4 | – |
| O=C1C=CC(=O)N1CCN1C(=O)C=CC1=O [Compound 10] | 516 | 4 | – |
| O=C1C=CC(=O)N1CCOCCOCCOCCN1C(=O)C=CC1=O [Compound 12] | 333 | 10.5 | – |
| O=C1C=CC(=O)N1c1ccc(OCCOCCOCCOCCOCCOc2ccc(N3C(=O)C=CC3=O)cc2)cc1 [Compound 13] | 125 | 4.6 | – |
| COC(=O)c1scc(C)c1N1C(=O)C=CC1=O [Compound 6] | 88 | 26 | – |
| O=C1C=CC(=O)N1c1ccc(Nc2ccccc2)cc1 [Compound 4] | 268 | 31 | – |
